# Counter-ions that a name gives are not always drawn.
# Molecular target: T1, Human renin (Homo sapiens, UniProt P00797)
# T1 construct: thus to obtain 1.5 mg of a purified product of active type renin (67-406); made in house; host or cells: FreeStyle 293-F cells (transient expression of pcDNA3.1(+)/hREN)
# T1 sequence (P00797 67-406): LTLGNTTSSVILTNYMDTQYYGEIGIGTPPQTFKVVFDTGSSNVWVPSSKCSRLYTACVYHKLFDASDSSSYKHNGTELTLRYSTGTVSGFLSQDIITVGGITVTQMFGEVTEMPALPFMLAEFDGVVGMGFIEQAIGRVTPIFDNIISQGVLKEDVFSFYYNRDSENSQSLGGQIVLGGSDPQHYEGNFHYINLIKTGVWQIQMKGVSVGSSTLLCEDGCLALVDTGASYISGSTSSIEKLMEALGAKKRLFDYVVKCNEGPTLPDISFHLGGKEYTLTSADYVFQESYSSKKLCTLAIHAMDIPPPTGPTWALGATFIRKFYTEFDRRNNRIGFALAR
# Assay: Measurement of renin inhibition value A (FITC-labelled substrate peptide, capillary electrophoresis)
# Format: biochemical
# Settings: test compound 1 μM, renin 4.7 nM, pH 6.0, 37° C., 30 min, read-out: inhibitory activity (%) at 1 μM
# Procedure: Human renin was obtained by expressing preprorenin (1-406) in an animal cell, treating the prorenin (24-406) contained in the culture supernatant with trypsin, and taking the active type (67-406).
# To 3.6 mg of prorenin (24-406) dissolved in 5.2 ml of 0.1 M Tris-hydrochloric acid (pH 8.0), 12 μg of trypsin (Roche Diagnostics Corp.) was added, and the mixture was allowed to react at 28° C. for 55 min to carry out activation of renin. After the reaction, 0.4 ml of immobilized trypsin inhibitor (Pierce Biotechnology, Inc.) was added to remove the trypsin used in the activation by adsorption. The reaction liquid containing the active type renin was concentrated using Vivaspin 20 (molecular weight cut off 10,000, Vivascience, Inc.), and was diluted with 20 mM Tris-hydrochloric acid (pH 8.0). The diluted liquid was fed to a TSKgel DEAE-5PW column (7.5 mm I.D.×75 mm, Tosoh Corp.) equilibrated with 20 mM Tris-hydrochloric acid (pH 8.0) at a flow rate of 1 ml/min to adsorb the active type renin (67-406). The column was washed with the buffer solution used for the equilibration, and then elution was carried out by means of a sodium chloride linear concentration gradient from 0 M to 0.3 M, thus to obtain 1.5 mg of a purified product of active type renin (67-406).
# As a substrate for renin activity measurement, a substrate peptide (FITC-Acp-Asp-Arg-Val-Tyr-Ile-His-Pro-Phe-His-Leu-Val-Ile-His-Gln-Arg-NH2; SEQ ID No.8) wherein the N-terminal of a peptide prepared in reference to a partial sequence (Asp-Arg-Val-Tyr-Ile-His-Pro-Phe-His-Leu-Val-Ile-His-Asn-Glu-NH2; SEQ ID No.7) of human angiotensinogen was bound with epsilon aminocaproic acid (Acp) as a linker and labeled with a fluorescence reagent Fluorescein isothiocyanate (FITC). 2 μl each of the test compound (containing 100% DMSO) was added to each well of a 384-well black plate (Nalge Nunc International Co., Ltd.). Renin was diluted with a buffer solution for reaction (20 mM citric acid-sodium citrate (pH 6.0)) to a concentration of 4.7 nM, and 30 μl each of the dilution was added to each well. The dilution was left to stand at 37° C. for 10 min, and then 8 μl of each of a 25 μM solution of substrate peptide was added to each well to initiate the reaction. The reaction mixture was left to stand at 37° C. for 30 min, and then 40 μl each of a reaction terminating solution [200 mM Tris-hydrochloric acid (pH 8.0), 0.04% Triton-X 100, 0.4% Coating 3 reagent (Caliper Life Sciences Corp.) and 1 μM CGP-29287 (Bachem Holding AG)] was added to each well to terminate the reaction.
# The substrate peptide and the product peptide were separated by a microchip type capillary electrophoresis system 250HTS (Caliper Life Sciences Co., Ltd.), and the rate of reaction [(peak height of product)/(peak height of product+peak height of substrate)×100(%)] was calculated from the ratio of the respective peak height of the peptides obtained by fluorimetric detection (excitation wavelength 457 nm, measurement wavelength 530 nm), and was used as an index of the renin activity.
# While the reaction rate of the well where 100% DMSO only was added was taken as 0% inhibition rate, and the reaction rate of the well where 10 μM of CGP-29287 was added was taken as 100% inhibition rate, the renin inhibitory activity of the wells where the test compound (containing 100% DMSO) was added was calculated.
row,Structure (SMILES),inhibition at 1 µM
1,"O=C(c1ncn(C2CCCCC2)c1-c1ccccc1)N1CCNC[C@H]1Cc1ccccc1 [Example 349, (2R)-2-Benzyl-1-[(1-cyclohexyl-5-phenyl-1H-imidazol-4-yl)carbonyl]piperazine]",101%
2,"COC[C@]1(O)CCCC[C@H]1n1cnc(C(=O)N2CCNC[C@H]2CCOc2ccc(C(=O)NC3CC3)cc2)c1-c1ccccc1 [Example 390, N-Cyclopropyl-4-{2-[(2R)-1-({1-[(1R,2S)-2-hydroxy-2-(methoxymethyl)cyclohexyl]-5-phenyl-1H-imidazol-4-yl}carbonyl)piperazin-2-yl]ethoxy}benzamide]",105%
3,"O=C(c1ncn(CC2(O)CCCCC2)c1-c1ccccc1)N1CCNC[C@H]1Cc1ccccc1 [Example 4, 1-[(4-{[(2R)-2-Benzylpiperazin-1-yl]carbonyl}-5-phenyl-1H-imidazol-1-yl)methyl]cyclohexanol]",99%
4,"COC[C@]1(O)CCCC[C@H]1n1cnc(C(=O)N2CCNC[C@H]2CCOc2ccc(C(=O)OC)cc2)c1-c1ccccc1 [Example 15, Methyl 4-{2-[(2R)-1-({1-[(1R,2S)-2-hydroxy-2-(methoxymethyl)cyclohexyl]-5-phenyl-1H-imidazol-4-yl}carbonyl)piperazin-2-yl]ethoxy}benzoate]",96%
5,"O=C(c1ncn([C@@H]2CCCC[C@@]2(O)CC2CC2)c1-c1ccccc1)N1CCNC[C@H]1Cc1ccccc1 [Example 363, (1R,2R)-2-(4-{[(2R)-2-Benzylpiperazin-1-yl]carbonyl}-5-phenyl-1H-imidazol-1-yl)-1-(cyclopropylmethyl)cyclohexanol hydrochloride]",98%
6,"O=C(c1ncn([C@H]2CCCC[C@H]2O)c1-c1ccccc1)N1CCNC[C@H]1Cc1ccccc1 [Example 352, (1R,2S)-2-(4-{[(2R)-2-Benzylpiperazin-1-yl]carbonyl}-5-phenyl-1H-imidazol-1-yl)cyclohexanol]",101%
7,"O=C(c1ncn(C2CCCCC[C@@H]2O)c1-c1ccccc1)N1CCNC[C@H]1Cc1ccccc1 (stereo partly drawn) [Example 7, trans-2-(4-{[(2R)-2-Benzylpiperazin-1-yl]carbonyl}-5-phenyl-1H-imidazol-1-yl)cycloheptanol]",100%
8,"CCCCC1(O)CCCCC1n1cnc(C(=O)N2CCNC[C@H]2Cc2ccccc2)c1-c1ccccc1 (stereo partly drawn) [Example 360, 2-(4-{[(2R)-2-Benzylpiperazin-1-yl]carbonyl}-5-phenyl-1H-imidazol-1-yl)-1-butylcyclohexanol hydrochloride]",99%
9,"COC(=O)N[C@H]1CCCC[C@@H]1n1cnc(C(=O)N2CCNC[C@H]2Cc2ccccc2)c1-c1ccccc1 [Example 6, Methyl [(1S,2S)-2-(4-{[(2R)-2-benzylpiperazin-1-yl]carbonyl}-5-phenyl-1H-imidazol-1-yl)cyclohexyl]carbamate]",98%
10,"CSCCCOC[C@@]1(O)CCCC[C@@H]1n1cnc(C(=O)N2CCNC[C@H]2Cc2ccccc2)c1-c1ccccc1 [Example 378, (1R,2S)-2-(4-{[(2R)-2-Benzylpiperazin-1-yl]carbonyl}-5-phenyl-1H-imidazol-1-yl)-1-{[3-(methylthio)propoxy]methyl}cyclohexanol]",99%
11,"CCOC(=O)N[C@H]1CCCC[C@@H]1n1cnc(C(=O)N2CCNC[C@H]2Cc2ccccc2)c1-c1ccccc1 [Example 357, Ethyl [(1S,2S)-2-(4-{[(2R)-2-benzylpiperazin-1-yl]carbonyl}-5-phenyl-1H-imidazol-1-yl)cyclohexyl]carbamate]",100%
12,"COC[C@]1(O)CCCC[C@H]1n1cnc(C(=O)N2CCNC[C@H]2CCn2ncc3ccccc32)c1-c1ccccc1 [Example 391, (1S,2R)-2-[4-({(2R)-2-[2-(1H-Indazol-1-yl)ethyl]piperazin-1-yl}carbonyl)-5-phenyl-1H-imidazol-1-yl]-1-(methoxymethyl)cyclohexanol]",109%

# Results, then the compound that gave them:
row,inhibition at 1 µM,Structure (SMILES)
1,103%,"CCOC(=O)N[C@H]1CCCC[C@@H]1n1cnc(C(=O)N2CCNC[C@H]2Cc2cc(F)cc(F)c2)c1-c1ccccc1 [Example 358, Ethyl [(1S,2S)-2-(4-{[(2R)-2-(3,5-difluorobenzyl)piperazin-1-yl]carbonyl}-5-phenyl-1H-imidazol-1-yl)cyclohexyl]carbamate]"
2,109%,"COC[C@]1(O)CCCC[C@H]1n1cnc(C(=O)N2CCNC[C@H]2CCOc2ccccc2)c1-c1ccccc1 [Example 387, (1S,2R)-1-(Methoxymethyl)-2-(4-{[(2R)-2-(2-phenoxyethyl)piperazin-1-yl]carbonyl}-5-phenyl-1H-imidazol-1-yl)cyclohexanol dihydrochloride]"
3,106%,"COC[C@]1(O)CCCC[C@H]1n1cnc(C(=O)N2CCNC[C@H]2CCOc2ccccc2F)c1-c1ccccc1 [Example 389, (1S,2R)-2-[4-({(2R)-2-[2-(2-Fluorophenoxy)ethyl]piperazin-1-yl}carbonyl)-5-phenyl-1H-imidazol-1-yl]-1-(methoxymethyl)cyclohexanol]"
4,99%,"COC[C@]1(O)CCCC[C@H]1n1cnc(C(=O)N2CCNC[C@H]2Cc2ccccc2)c1-c1ccccc1 [Example 367, (1S,2R)-2-(4-{[(2R)-2-Benzylpiperazin-1-yl]carbonyl}-5-phenyl-1H-imidazol-1-yl)-1-(methoxymethyl)cyclohexanol dihydrochloride]"
5,100%,"COC[C@]1(O)CCCC[C@H]1n1cnc(C(=O)N2CCNC[C@H]2Cc2cccnc2)c1-c1ccccc1 [Example 380, (1S,2R)-1-(Methoxymethyl)-2-(5-phenyl-4-{[(2R)-2-(pyridin-3-ylmethyl)piperazin-1-yl]carbonyl}-1H-imidazol-1-yl)cyclohexanol dihydrochloride]"
6,99%,"COC[C@]1(O)CCCC[C@H]1n1cnc(C(=O)N2CCNC[C@H]2Cc2cc(F)cc(F)c2)c1-c1ccccc1 [Example 379, (1S,2R)-2-(4-{[(2R)-2-(3,5-Difluorobenzyl)piperazin-1-yl]carbonyl}-5-phenyl-1H-imidazol-1-yl)-1-(methoxymethyl)cyclohexanol hydrochloride]"
7,100%,"COC[C@]1(O)CCCC[C@H]1n1cnc(C(=O)N2CCNC[C@H]2Cc2ccccc2)c1-c1cccc(F)c1 [Example 383, (1S,2R)-2-[4-{[(2R)-2-Benzylpiperazin-1-yl]carbonyl}-5-(3-fluorophenyl)-1H-imidazol-1-yl]-1-(methoxymethyl)cyclohexanol]"
8,100%,"CCOCC1(O)CCCCC1n1cnc(C(=O)N2CCNC[C@H]2Cc2ccccc2)c1-c1ccccc1 (stereo partly drawn) [Example 361, 2-(4-{[(2R)-2-Benzylpiperazin-1-yl]carbonyl}-5-phenyl-1H-imidazol-1-yl)-1-(ethoxymethyl)cyclohexanol]"
9,96%,"O=C(c1ncn([C@H]2CCCC[C@H]2O)c1-c1ccccc1)N1CCNC[C@H]1Cc1cc(F)cc(F)c1 [Example 1, (1R,2S)-2-(4-{[(2R)-2-(3,5-Difluorobenzyl)piperazin-1-yl]carbonyl}-5-phenyl-1H-imidazol-1-yl)cyclohexanol hydrochloride]"

# Source: US20090227560A1, “Substituted imidazole compound and use thereof” (priority 2007, published 2009)
